Measured values from US20260116920A1, “HUMAN TRANSFERRIN RECEPTOR BINDING PEPTIDE” (PEPTIDREAM INC., priority 2021, published 2026).
Positions of bridges follow the written chain, without caps; N, C: chain ends. Non-standard residues stand in square brackets, D forms with d. Residues, ends and D or L forms follow the SMILES beside them. *: point of attachment. Ala(1-CH2CO2H-4-piperidyl) = N[C@@H](CC1CCN(CC(=O)O)CC1)C(=O)O; Trp(1-CH2COOH) = N[C@@H](Cc1cn(CC(=O)O)c2ccccc12)C(=O)O; Nle(6-morpholino) = N[C@@H](CCCCN1CCOCC1)C(=O)O; NH(CH2CH2O)8Me = COCCOCCOCCOCCOCCOCCOCCOCCN*; NMePhe(3-Cl) = CN[C@@H](Cc1cccc(Cl)c1)C(=O)O; NMeY = CN[C@@H](Cc1ccc(O)cc1)C(=O)O; 4Pal = N[C@@H](Cc1ccncc1)C(=O)O; PEG4 = NCCOCCOCCOCCOCCC(=O)O; Carboxymethyl = O=C(O)C*; NHCH2CH2OH = OCCN*

Each compound was assayed against T1, human transferrin receptor (hTfR) (Homo sapiens, UniProt P02786) (assay: Evaluation of molecular interaction between transferrin receptor (hTfR) and peptide using surface plasmon resonance (SPR)). Conditions: KD class for binding to hTfR by SPR; peptide with the linker shown in the same line; 'low signal indicates no activity'; read-out: SPR.
T1 construct: made in house
T1 sequence (P02786 89-760 limits assumed): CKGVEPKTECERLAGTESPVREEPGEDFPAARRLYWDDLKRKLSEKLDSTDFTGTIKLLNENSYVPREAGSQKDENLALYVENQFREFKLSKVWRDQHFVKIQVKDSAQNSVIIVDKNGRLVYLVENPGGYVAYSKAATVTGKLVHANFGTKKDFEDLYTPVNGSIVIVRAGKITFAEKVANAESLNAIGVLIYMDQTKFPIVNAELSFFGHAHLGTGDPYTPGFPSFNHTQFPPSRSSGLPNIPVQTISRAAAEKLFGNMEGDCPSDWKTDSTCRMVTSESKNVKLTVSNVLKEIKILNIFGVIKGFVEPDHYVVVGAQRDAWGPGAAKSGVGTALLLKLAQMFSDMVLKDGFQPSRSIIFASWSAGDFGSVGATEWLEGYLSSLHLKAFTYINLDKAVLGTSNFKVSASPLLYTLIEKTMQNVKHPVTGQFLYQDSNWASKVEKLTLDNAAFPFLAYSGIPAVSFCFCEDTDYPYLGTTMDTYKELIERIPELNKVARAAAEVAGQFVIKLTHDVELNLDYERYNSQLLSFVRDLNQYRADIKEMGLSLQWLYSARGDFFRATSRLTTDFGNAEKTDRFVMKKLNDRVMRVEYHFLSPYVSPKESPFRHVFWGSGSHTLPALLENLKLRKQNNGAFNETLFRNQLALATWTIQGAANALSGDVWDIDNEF
Format: binding
Protocol: Evaluation Test of Molecular Interaction Between Transferrin Receptor (hTfR) and Peptide Using Surface Plasmon Resonance (SPR)
The intermolecular interactions of various synthesized peptides with the transferrin receptor (hTfR) by surface plasmon resonance (SPR) of the peptides were tested by the methods described below. Specific test methods are shown below.
NTA sensor chip (Global Life Sciences Technologies Japan K.K.) was inserted into BiacoreT200 (Global Life Sciences Technologies Japan K.K.), then the priming operation was performed three times by using running buffer containing: 10 mM HEPES pH 8.0 (Nacalai Tesque, Inc.), 150 mM NaCl (Nacalai Tesque, Inc.), 0.05% Tween 20 (Nacalai Tesque, Inc.), 0.1% BSA (SIGMA-ALDRICH) and 1.0% DMSO (FUJIFILM Wako Pure Chemical Corporation), and equilibrated at a flow rate of 30 μL/min. 350 mM EDTA solution was reacted at a flow rate of 10 μL/min for 60 seconds, 0.5 mM […] solution (Kishida Chemical Co., Ltd.) was reacted at a flow rate of 10 μL/min for 60 seconds, and then the NTA sensor chip was washed with 3 mM EDTA solution (Nacalai Tesque, Inc.) at a flow rate of 10 μL/min for 60 seconds. After mixing 50 μL each of 60 mM EDC solution (Global Life Science Technologies Japan K.K.) and 650 mM NHS solution (Global Life Science Technologies Japan K.K.), the reaction was carried out at a flow rate of 10 μL/min for 420 seconds. 150 μL of 0.5 μM hTfR dimer solution was prepared by dilution with running buffer and reacted at a flow rate of 10 μL/min for 300 seconds to immobilize hTfR on the NTA sensor chip. For the human transferrin receptor (hTfR), recombinant hTfR described in Example 2 of WO2018/124121 was used. After immobilization, capping was performed by reacting with 1.0 M ethanolamine solution (Global Life Sciences Technologies Japan K.K.) at a flow rate of 10 μL/min for 420 seconds. Peptide lysate prepared in DMSO solution to 10 mM was diluted with running buffer to be a final concentration of 10 μM peptide lysate, then peptide solutions of 100 nM, 50 nM, 25 nM, 10 nM, and 5 nM were prepared. Using the above samples, the kinetics of the peptide against hTfR was obtained by SPR measurement.
The kinetic evaluation model was single-cycle kinetics, and curve fitting was performed using Biacore T200 Evaluation Software Version 3.0 (Global Life Science Technologies Japan K.K.). The binding of the peptide to hTfR was evaluated by performing curve fitting on the obtained sensorgram by least squares method and obtaining the KD value.

Kd	SMILES
1 to 100 nM	CC[C@H](C)[C@@H]1NC(=O)[C@H](Cc2ccc(OCC(=O)O)cc2)NC(=O)[C@H](Cc2ccc(O)cc2)NC(=O)[C@H](CC(N)=O)NC(=O)[C@H](Cc2cn(CC(=O)O)c3ccccc23)NC(=O)[C@H](C(C)C)NC(=O)[C@H](Cc2cccc(Cl)c2)N(C)C(=O)[C@H](C(C)C)NC(=O)[C@H](C)NC(=O)CSC[C@@H](C(=O)NCCOCCOCCOCCOCCC(N)=O)NC(=O)[C@H](Cc2ccc(O)cc2)N(C)C(=O)[C@H](Cc2ccccc2)NC(=O)[C@H](CCC(=O)NCCO)NC(=O)[C@H](CCCNC(=N)N)NC(=O)[C@H]([C@@H](C)CC)NC1=O [894_0381]
< 1 nM	CC[C@H](C)[C@@H]1NC(=O)[C@H](Cc2ccc(OCC(=O)O)cc2)NC(=O)[C@H](Cc2ccc(O)cc2)NC(=O)[C@H](CC(N)=O)NC(=O)[C@H](Cc2cn(CC(=O)O)c3ccccc23)NC(=O)[C@H](C(C)C)NC(=O)[C@H](Cc2cccc(Cl)c2)N(C)C(=O)[C@H](C(C)C)NC(=O)[C@H](C)NC(=O)CSC[C@@H](C(=O)NCCOCCOCCOCCOCCC(N)=O)NC(=O)[C@H](Cc2ccc(O)cc2)N(C)C(=O)[C@H](Cc2ccccc2)NC(=O)[C@H](CCC(=O)NCCO)NC(=O)[C@H](CCC(=O)NCCO)NC(=O)[C@H]([C@@H](C)CC)NC1=O [894_0382] ({CH2CO}-AV[NMePhe(3-Cl)]V[Trp(1-CH2COOH)]NYY(Carboxymethyl)IIE(NHCH2CH2OH)E(NHCH2CH2OH)F[NMeY]C[PEG4]-NH2; thioether N-15)
1 to 100 nM	CC[C@H](C)[C@@H]1NC(=O)[C@H](Cc2ccc(OCC(=O)O)cc2)NC(=O)[C@H](Cc2ccc(O)cc2)NC(=O)[C@H](CC(N)=O)NC(=O)[C@H](Cc2cn(CC(=O)O)c3ccccc23)NC(=O)[C@H](C(C)C)NC(=O)[C@H](Cc2cccc(Cl)c2)N(C)C(=O)[C@H](C(C)C)NC(=O)[C@H](C)NC(=O)CSC[C@@H](C(=O)NCCOCCOCCOCCOCCC(N)=O)NC(=O)[C@H](Cc2ccc(O)cc2)N(C)C(=O)[C@H](Cc2ccccc2)NC(=O)[C@H](CC2CCN(CC(=O)O)CC2)NC(=O)[C@H](CCCNC(=N)N)NC(=O)[C@H]([C@@H](C)CC)NC1=O [894_0387] ({CH2CO}-AV[NMePhe(3-Cl)]V[Trp(1-CH2COOH)]NYY(Carboxymethyl)IIR[Ala(1-CH2CO2H-4-piperidyl)]F[NMeY]C[PEG4]-NH2; thioether N-15)
< 1 nM	CC[C@H](C)[C@@H]1NC(=O)[C@H](Cc2ccc(OCC(=O)O)cc2)NC(=O)[C@H](Cc2ccc(O)cc2)NC(=O)[C@H](CC(N)=O)NC(=O)[C@H](Cc2cn(CC(=O)O)c3ccccc23)NC(=O)[C@H](C(C)C)NC(=O)[C@H](Cc2cccc(Cl)c2)N(C)C(=O)[C@H](C(C)C)NC(=O)[C@H](C)NC(=O)CSC[C@@H](C(=O)NCCOCCOCCOCCOCCC(N)=O)NC(=O)[C@H](Cc2ccc(O)cc2)N(C)C(=O)[C@H](Cc2ccccc2)NC(=O)[C@H](CCCCN2CCOCC2)NC(=O)[C@H](CCCNC(=N)N)NC(=O)[C@H]([C@@H](C)CC)NC1=O [894_0389] ({CH2CO}-AV[NMePhe(3-Cl)]V[Trp(1-CH2COOH)]NYY(Carboxymethyl)IIR[Nle(6-morpholino)]F[NMeY]C[PEG4]-NH2; thioether N-15)

Second part, the compound before the results:

SMILES	Kd
CC[C@H](C)[C@@H]1NC(=O)[C@H](Cc2ccc(OC)cc2)NC(=O)[C@H](Cc2ccc(O)cc2)NC(=O)[C@H](CC(N)=O)NC(=O)[C@H](Cc2c[nH]c3ccccc23)NC(=O)[C@H](C(C)C)NC(=O)[C@H](Cc2cccc(Cl)c2)N(C)C(=O)[C@H](C(C)C)NC(=O)[C@H](C)NC(=O)CSC[C@@H](C(=O)NCCOCCOCCOCCOCCC(N)=O)NC(=O)[C@H](Cc2ccc(O)cc2)N(C)C(=O)[C@H](Cc2ccncc2)NC(=O)[C@H](CCC(=O)NCCOCCOCCOCCOCCOCCOCCOCCOC)NC(=O)[C@H](CCCNC(=N)N)NC(=O)[C@H]([C@@H](C)CC)NC1=O [894_0366] ({CH2CO}-AV[NMePhe(3-Cl)]VWNYY(Me)IIRE(NH(CH2CH2O)8Me)[4Pal][NMeY]C[PEG4]-NH2; thioether N-15)	1 to 100 nM
CC[C@H](C)[C@@H]1NC(=O)[C@H](Cc2ccc(OCC(=O)O)cc2)NC(=O)[C@H](Cc2ccc(O)cc2)NC(=O)[C@H](CC(N)=O)NC(=O)[C@H](Cc2cn(CC(=O)O)c3ccccc23)NC(=O)[C@H](C(C)C)NC(=O)[C@H](Cc2cccc(Cl)c2)N(C)C(=O)[C@H](C(C)C)NC(=O)[C@H](C)NC(=O)CSC[C@@H](C(=O)NCCOCCOCCOCCOCCC(N)=O)NC(=O)[C@H](Cc2ccc(O)cc2)N(C)C(=O)[C@H](Cc2ccccc2)NC(=O)[C@H](CCCNC(=N)N)NC(=O)[C@H](CCCCNC(=O)OC)NC(=O)[C@H]([C@@H](C)CC)NC1=O [894_0378]	< 1 nM
CC[C@H](C)[C@@H]1NC(=O)[C@H](Cc2ccc(OCC(=O)O)cc2)NC(=O)[C@H](Cc2ccc(O)cc2)NC(=O)[C@H](CC(N)=O)NC(=O)[C@H](Cc2cn(CC(=O)O)c3ccccc23)NC(=O)[C@H](C(C)C)NC(=O)[C@H](Cc2cccc(Cl)c2)N(C)C(=O)[C@H](C(C)C)NC(=O)[C@H](C)NC(=O)CSC[C@@H](C(=O)NCCOCCOCCOCCOCCC(N)=O)NC(=O)[C@H](Cc2ccc(O)cc2)N(C)C(=O)[C@H](Cc2ccccc2)NC(=O)[C@H](CCCCNC(=O)OC)NC(=O)[C@H](CCCNC(=N)N)NC(=O)[C@H]([C@@H](C)CC)NC1=O [894_0379]	1 to 100 nM
CC[C@H](C)[C@@H]1NC(=O)[C@H](Cc2ccc(OCC(=O)O)cc2)NC(=O)[C@H](Cc2ccc(O)cc2)NC(=O)[C@H](CC(N)=O)NC(=O)[C@H](Cc2cn(CC(=O)O)c3ccccc23)NC(=O)[C@H](C(C)C)NC(=O)[C@H](Cc2cccc(Cl)c2)N(C)C(=O)[C@H](C(C)C)NC(=O)[C@H](C)NC(=O)CSC[C@@H](C(=O)NCCOCCOCCOCCOCCC(N)=O)NC(=O)[C@H](Cc2ccc(O)cc2)N(C)C(=O)[C@H](Cc2ccccc2)NC(=O)[C@H](CCCNC(=N)N)NC(=O)[C@H](CCC(=O)NCCO)NC(=O)[C@H]([C@@H](C)CC)NC1=O [894_0380]	1 to 100 nM
CC[C@H](C)[C@@H]1NC(=O)[C@H](Cc2ccc(OCC(=O)O)cc2)NC(=O)[C@H](Cc2ccc(O)cc2)NC(=O)[C@H](CC(N)=O)NC(=O)[C@H](Cc2cn(CC(=O)O)c3ccccc23)NC(=O)[C@H](C(C)C)NC(=O)[C@H](Cc2cccc(Cl)c2)N(C)C(=O)[C@H](C(C)C)NC(=O)[C@H](C)NC(=O)CSC[C@@H](C(=O)NCCOCCOCCOCCOCCC(N)=O)NC(=O)[C@H](Cc2ccc(O)cc2)N(C)C(=O)[C@H](Cc2ccccc2)NC(=O)[C@H](CCCNC(=N)N)NC(=O)[C@H](CCC(=O)N2CCN(CC(=O)O)CC2)NC(=O)[C@H]([C@@H](C)CC)NC1=O [894_0383]	1 to 100 nM
CC[C@H](C)[C@@H]1NC(=O)[C@H](Cc2ccc(OCC(=O)O)cc2)NC(=O)[C@H](Cc2ccc(O)cc2)NC(=O)[C@H](CC(N)=O)NC(=O)[C@H](Cc2cn(CC(=O)O)c3ccccc23)NC(=O)[C@H](C(C)C)NC(=O)[C@H](Cc2cccc(Cl)c2)N(C)C(=O)[C@H](C(C)C)NC(=O)[C@H](C)NC(=O)CSC[C@@H](C(=O)NCCOCCOCCOCCOCCC(N)=O)NC(=O)[C@H](Cc2ccc(O)cc2)N(C)C(=O)[C@H](Cc2ccccc2)NC(=O)[C@H](CCC(=O)N2CCN(CC(=O)O)CC2)NC(=O)[C@H](CCCNC(=N)N)NC(=O)[C@H]([C@@H](C)CC)NC1=O [894_0384]	1 to 100 nM
CC[C@H](C)[C@@H]1NC(=O)[C@H](Cc2ccc(OCC(=O)O)cc2)NC(=O)[C@H](Cc2ccc(O)cc2)NC(=O)[C@H](CC(N)=O)NC(=O)[C@H](Cc2cn(CC(=O)O)c3ccccc23)NC(=O)[C@H](C(C)C)NC(=O)[C@H](Cc2cccc(Cl)c2)N(C)C(=O)[C@H](C(C)C)NC(=O)[C@H](C)NC(=O)CSC[C@@H](C(=O)NCCOCCOCCOCCOCCC(N)=O)NC(=O)[C@H](Cc2ccc(O)cc2)N(C)C(=O)[C@H](Cc2ccccc2)NC(=O)[C@H](CCCNC(=N)N)NC(=O)[C@H](CC2CCN(CC(=O)O)CC2)NC(=O)[C@H]([C@@H](C)CC)NC1=O [894_0386] ({CH2CO}-AV[NMePhe(3-Cl)]V[Trp(1-CH2COOH)]NYY(Carboxymethyl)II[Ala(1-CH2CO2H-4-piperidyl)]RF[NMeY]C[PEG4]-NH2; thioether N-15)	< 1 nM
CC[C@H](C)[C@@H]1NC(=O)[C@H](Cc2ccc(OCC(=O)O)cc2)NC(=O)[C@H](Cc2ccc(O)cc2)NC(=O)[C@H](CC(N)=O)NC(=O)[C@H](Cc2cn(CC(=O)O)c3ccccc23)NC(=O)[C@H](C(C)C)NC(=O)[C@H](Cc2cccc(Cl)c2)N(C)C(=O)[C@H](C(C)C)NC(=O)[C@H](C)NC(=O)CSC[C@@H](C(=O)NCCOCCOCCOCCOCCC(N)=O)NC(=O)[C@H](Cc2ccc(O)cc2)N(C)C(=O)[C@H](Cc2ccccc2)NC(=O)[C@H](CCCNC(=N)N)NC(=O)[C@H](CCCCN2CCOCC2)NC(=O)[C@H]([C@@H](C)CC)NC1=O [894_0388]	< 1 nM
